pEC50: −log10 of the molar value.

This experiment has as its system HCV (Ib) RNA replication. Nature of the experiment: Cell-based luciferase reporter HCV (1b) RNA replication assay (replicon cell lines Huh-7 5.2 and ET). The note with it: Hepatitis C virus, Huh-7, 96 h, HCV 1b genotype replicon, luciferase readout, 4 days incubation; read-out: EC50_1b. Further details: species or system Hepatitis C virus. The method in brief: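 Huh-7-derived 5.2 or ET replicon cells carrying a firefly luciferase reporter were seeded at ~3000 cells/well in medium without G418 or phenol red. Compound was added after 3-4 h, followed by 4 days at 37 °C. Luciferase readout was used, with IC50 fitted by nonlinear regression from eleven concentrations in duplicate.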
In general terms: Reporter assays use an easily measured gene product as a stand-in for the process of interest.
Turning to `COC(=O)N[C@H](C(=O)N1CCC[C@H]1c1nc2cc(-c3ccc(-c4ccc5nc([C@@H]6CCCN6C(=O)[C@@H](NC(=O)OC)C(C)C)n(C)c5c4)cc3)ccc2[nH]1)C(C)C` [Compound 255], the pEC50 was not below 8.30.

Turning to `COC(=O)N[C@H](C(=O)N1C[C@@H](C)C[C@H]1c1nc2cc(-c3ccc(-c4ccc5[nH]c([C@@H]6C[C@H](C)CN6C(=O)[C@H](C(C)C)N(C)C(=O)OC)nc5c4)cc3F)ccc2[nH]1)C(C)C` [Compound 285], the pEC50 is not below 8.30.

On to `O=C(OCc1ccccc1)N1CCC[C@H]1c1nc2ccc(N3CCN(c4ccc5nc([C@@H]6CCCN6C(=O)OCc6ccccc6)[nH]c5c4)CC3)cc2[nH]1` [Compound 210], for which the pEC50 is 5.30 to 8.30.

In the case of `CC(C)[C@H](NC(=O)O[C@H]1CCOC1)C(=O)N1CCC[C@H]1c1nc2cc(-c3ccsc3-c3ccc4[nH]c([C@@H]5CCCN5C(=O)[C@@H](NC(=O)O[C@H]5CCOC5)C(C)C)nc4c3)ccc2[nH]1` [Compound 47, bis((S)-tetrahydrofuran-3-yl)-(2S,2′S)-1,1′-((2S,2′S)-2,2′-(5,5′-(thiophene-2,3-diyl)bis(1H-benzo[d]imidazole-5,2-diyl))bis(pyrrolidine-2,1-diyl))bis(3-methyl-1-oxobutane-2,1-diyl)dicarbamate], the pEC50 is 5.30 to 8.30.

Take `COC(=O)NC(C(=O)N1CCCC1c1nc2cc(-c3ccc(-c4ccc5nc(C6CCCN6C(=O)C(NC(=O)OC)C(C)(C)C)[nH]c5c4)cc3)ccc2[nH]1)C(C)(C)C` (stereo not drawn) [Compound 190]: the pEC50 is not below 8.30.

In the case of `COC(=O)N[C@H](C(=O)N1CCC[C@H]1c1nc2cc(C#Cc3ccc4nc([C@@H]5CCCN5C(=O)[C@@H](NC(=O)OC(C)(C)C)C5CCCCC5)[nH]c4c3)ccc2[nH]1)C(C)C` [Compound 77], the pEC50 was not below 8.30.

Turning to `CC(C)(C)OC(=O)NC(CC1CCC1)C(=O)N1CCC[C@H]1c1nc2cc(C#Cc3ccc4[nH]c([C@@H]5CCCN5C(=O)[C@H](CC5CCC5)NC(=O)OC(C)(C)C)nc4c3)ccc2[nH]1` (stereo partly drawn) [Compound 121], the pEC50 is 5.30 to 8.30.

Turning to `COC(=O)N[C@H](C(=O)N1CCC[C@H]1c1nc2cc(-c3cscc3-c3ccc4[nH]c([C@@H]5CCCN5C(=O)[C@@H](NC(=O)OC)C(C)C)nc4c3)ccc2[nH]1)C(C)C` [Compound 44, Dimethyl-(2S,2′S)-1,1′-((2S,2′S)-2,2′-(5,5′-(thiophene-3,4-diyl)bis(1H-benzo[d]imidazole-5,2-diyl))bis(pyrrolidine-2,1-diyl))bis(3-methyl-1-oxobutane-2,1-diyl)dicarbamate], the pEC50 is not below 8.30.

On to `COC(=O)N[C@H](C(=O)N1CCC[C@H]1c1nc2cc(-c3cnc(-c4ccc5[nH]c([C@@H]6CCCN6C(=O)[C@@H](NC(=O)OC)C(C)C)nc5c4)c(C)c3)ccc2[nH]1)C(C)C` [Compound 43, Methyl N-[(1S)-1-[(2S)-2-[5-[5-[2-[(2S)-1-[(2S)-2-(methoxycarbonylamino)-3-methyl-butanoyl]pyrrolidin-2-yl]-1H-benzimidazol-5-yl]-3-methyl-2-pyridyl]-1H-benzimidazol-2-yl]pyrrolidine-1-carbonyl]-2-methyl-propyl]carbamate], for which the pEC50 was not below 8.30.

For `O=C(OCc1ccccc1)N1COC[C@@H]1C(=O)N1CCC[C@H]1c1nc2cc(C#Cc3ccc4[nH]c([C@@H]5CCCN5C(=O)[C@H]5COCN5C(=O)OCc5ccccc5)nc4c3)ccc2[nH]1` [Compound 119], the pEC50 is not below 8.30.

For `COC(=O)N[C@H](C(=O)N1C[C@@H](C)C[C@H]1c1nc2cc(-c3cc4sc(-c5ccc6[nH]c([C@@H]7C[C@H](C)CN7C(=O)[C@H](C(C)C)N(C)C(=O)OC)nc6c5)cc4s3)ccc2[nH]1)C(C)C` [Compound 264], the pEC50 is not below 8.30.

With `CCCCc1cc(-c2ccc3[nH]c([C@@H]4CCCN4C(=O)[C@@H](NC(=O)O[C@H]4CCOC4)C(C)C)nc3c2)sc1-c1ccc2[nH]c([C@@H]3CCCN3C(=O)[C@@H](NC(=O)O[C@H]3CCOC3)C(C)C)nc2c1` [Compound 158], the pEC50 was not below 8.30.

As for `CCOCCC(=O)N1CCC[C@H]1c1nc2cc(C#Cc3ccc4[nH]c([C@@H]5CCCN5C(=O)CCOCC)nc4c3)ccc2[nH]1` [Compound 107], the pEC50 is 5.30 to 8.30.

On to `COC(=O)N[C@@H](C(=O)N1CCC[C@H]1c1nc2cc(-c3ccc(-c4ccc5[nH]c([C@@H]6CCCN6C(=O)[C@H](NC(=O)OC)C(C)C)nc5c4)cc3)ccc2[nH]1)C(C)C` [Compound 171], for which the pEC50 is 5.30 to 8.30.

`COC[C@H](NC(=O)OC)C(=O)N1CCC[C@H]1c1nc2cc(C#Cc3ccc4nc([C@@H]5CCCN5C(=O)[C@H](COC)NC(=O)OC)[nH]c4c3)ccc2[nH]1` [Compound 71]: the pEC50 is not below 8.30.

For `COC(=O)N[C@H](C(=O)N1CCC[C@H]1c1nc2cc(-c3ccc(-c4ccc5nc([C@@H]6CCCN6C(=O)[C@@H](NC(=O)OC)C(C)C)[nH]c5c4)cc3[N+](=O)[O-])ccc2[nH]1)C(C)C` [Compound 141], the pEC50 is not below 8.30.

On to `COC(=O)N[C@H](C(=O)N1C[C@@H](C)C[C@H]1c1nc2cc(-c3ccc(-c4ccc5[nH]c([C@@H]6C[C@H](C)CN6C(=O)[C@H](C(C)C)N(C)C(=O)OC)nc5c4)c(F)c3)ccc2[nH]1)C(C)C` [Compound 286], for which the pEC50 is not below 8.30.

As for `COC(=O)N[C@H](C(=O)N1C[C@@H](C)C[C@H]1c1nc2cc(-c3cc4sc(-c5ccc6[nH]c([C@@H]7C[C@H](C)CN7C(=O)[C@@H](NC(=O)OC)C(C)C)nc6c5)cc4s3)ccc2[nH]1)C(C)C` [Compound 233], the pEC50 was not below 8.30.

As for `COC(=O)N[C@H](C(=O)N1CCC[C@H]1c1nc2cc(-c3ccc(-c4ccc5nc([C@@H]6CCCN6C(=O)CCCC[C@@H]6SC[C@@H]7NC(=O)N[C@@H]76)[nH]c5c4)cc3)ccc2[nH]1)C(C)C` [Compound 216], the pEC50 was not below 8.30.

`COC(=O)N[C@H](C(=O)N1CCC[C@H]1c1nc2ccc(N3C[C@H](C)N(c4ccc5nc([C@@H]6CCCN6C(=O)[C@@H](NC(=O)OC)C(C)C)[nH]c5c4)C[C@H]3C)cc2[nH]1)C(C)C` [Compound 258]: the pEC50 was not below 8.30.

Consider `COC(=O)N[C@H](C(=O)N1C[C@@H](C)C[C@H]1c1nc2cc(-c3ccc(-c4ccc5[nH]c([C@@H]6C[C@H](C)CN6C(=O)[C@@H](NC(=O)OC)C(C)C)nc5c4)c(C(=O)OC)c3)ccc2[nH]1)C(C)C` [Compound 268], for which the pEC50 is not below 8.30.

`c1cc(-c2ccc3[nH]c([C@@H]4CCCN4CCC4CCOCC4)nc3c2)ccc1-c1ccc2[nH]c(C3CCCN3CCC3CCOCC3)nc2c1` (stereo partly drawn) [Compound 192]: the pEC50 was 5.30 to 8.30.

Turning to `COC(=O)N[C@H](C(=O)N1C[C@H](OC)C[C@H]1c1nc2cc(-c3ccc(-c4ccc5[nH]c([C@@H]6C[C@@H](OC)CN6C(=O)[C@@H](NC(=O)OC)C(C)C)nc5c4)cc3)ccc2[nH]1)C(C)C` [Compound 174], the pEC50 is not below 8.30.

For the compound `CC(C)[C@H](O)C(=O)N1CCC[C@H]1c1nc2cc(-c3ccc(-c4ccc5nc([C@@H]6CCCN6C(=O)[C@@H](O)C(C)C)[nH]c5c4)c4c3OCO4)ccc2[nH]1` [Compound 209], the pEC50 was 5.30 to 8.30.

Turning to `CC(C)(C)OC(=O)N1CC[C@H]1C(=O)N1CCC[C@H]1c1nc2cc(C#Cc3ccc4[nH]c([C@@H]5CCCN5C(=O)[C@@H]5CCN5C(=O)OC(C)(C)C)nc4c3)ccc2[nH]1` [Compound 129], the pEC50 is less than 5.30.

Consider `Cn1c(C2CCCN2C(=O)OC(C)(C)C)nc2ccc(-c3ccc(-c4ccc5[nH]c(C6CCCN6C(=O)OC(C)(C)C)nc5c4)cc3)cc21` (stereo not drawn) [Compound 256], for which the pEC50 was 5.30 to 8.30.

Take `COC(=O)N[C@H](C(=O)N1CCC[C@H]1c1nc2cc(-c3ccc(-c4ccc5nc([C@@H]6CCCN6C(=O)[C@@H](NC(=O)OC)C(C)C)[nH]c5c4)cc3CF)ccc2[nH]1)C(C)C` [Compound 220]: the pEC50 is not below 8.30.

For the compound `COC(=O)N[C@H](C(=O)N1C[C@@H](C(F)(F)F)C[C@H]1c1nc2cc(-c3ccc(-c4ccc5[nH]c([C@@H]6C[C@H](C(F)(F)F)CN6C(=O)[C@@H](NC(=O)OC)C(C)C)nc5c4)cc3)ccc2[nH]1)C(C)C` [Compound 316], the pEC50 is not below 8.30.

With `CC[C@@H](NC(C)=O)C(=O)N1CCC[C@H]1c1nc2cc(C#Cc3ccc4[nH]c([C@@H]5CCCN5C(=O)[C@@H](CC)NC(C)=O)nc4c3)ccc2[nH]1` [Compound 104], the pEC50 was 5.30 to 8.30.

Consider `COC(=O)N[C@H](C(=O)N1C[C@@H](OC)C[C@H]1c1nc2cc(-c3ccc(-c4ccc5[nH]c([C@@H]6C[C@H](OC)CN6C(=O)[C@@H](NC(=O)OC)C(C)C)nc5c4)cc3)ccc2[nH]1)C(C)C` [Compound 222], for which the pEC50 was not below 8.30.

On to `CC(C)[C@H](NC(=O)NC1CCCC1)C(=O)N1CCCC1c1nc2cc(C#Cc3ccc4[nH]c([C@H]5CCCN5C(=O)[C@@H](NC(=O)NC5CCCC5)C(C)C)nc4c3)ccc2[nH]1` (stereo partly drawn) [Compound 70], for which the pEC50 was 5.30 to 8.30.

Turning to `C(#Cc1ccc2[nH]c([C@@H]3CCCN3CC3CCCC3)nc2c1)c1ccc2[nH]c([C@@H]3CCCN3CC3CCCC3)nc2c1` [Compound 139], the pEC50 is 5.30 to 8.30.

Consider `COC(=O)N[C@H](C(=O)N1CC(C)(C)C[C@H]1c1nc2cc(-c3ccc(-c4ccc5[nH]c([C@@H]6CC(C)(C)CN6C(=O)[C@@H](NC(=O)OC)C(C)C)nc5c4)cc3)ccc2[nH]1)C(C)C` [Compound 298], for which the pEC50 is not below 8.30.

Turning to `COC(=O)N(C)[C@H](C(=O)N1C[C@@H](C)C[C@H]1c1nc2cc(-c3ccc(-c4ccc5[nH]c([C@@H]6C[C@H](C)CN6C(=O)[C@H](C(C)C)N(C)C(=O)OC)nc5c4)c(F)c3)ccc2[nH]1)C(C)C` [Compound 278], the pEC50 is not below 8.30.

In the case of `COC(=O)N[C@H](C(=O)N1CCC[C@H]1c1nc2cc(C#Cc3ccc4[nH]c([C@@H]5CCCN5C(=O)OC(C)(C)C)nc4c3)ccc2[nH]1)C(C)C` [Compound 34, (S)-2-(5-{2-[(S)-1-((S)-2-Methoxycarbonylamino-3-methyl-butyryl)-pyrrolidin-2-yl]-1H-benzoimidazol-5-ylethynyl}-1H-benzoimidazol-2-yl)-pyrrolidine-1-carboxylic acid tert-butyl ester], the pEC50 is 5.30 to 8.30.

Consider `COC(=O)N[C@H](C(=O)N1CCC[C@H]1c1nc2ccc(-c3ccc(-c4ccc5nc([C@@H]6CCCN6C(=O)[C@@H](NC(=O)OC)C(C)C)n(C)c5c4)cc3)cc2n1C)C(C)C` [Compound 259], for which the pEC50 is not below 8.30.

Values taken from patent publication US8354419B2, “Benzimidazole analogues for the treatment or prevention of flavivirus infections” (Vertex Pharmaceuticals Incorporated, priority 2009, dated 2013).
